According to patent US20190249218A1, “Method, Medium and Kit for Detecting Multiple Aminoglycoside Resistance Including 16S rRNA Methylase Mediated Resistance in Gram-Negative Bacteria” (priority 2016, published 2019):
Values after ≈ are worked out from the molar mass of the structure shown. Like-named read-outs stand apart in the source and are kept apart here.

Legend:
P. stuartii = experiment: MIC by broth microdilution; format: cell-based, Providencia stuartii
Description: (§1) MICs of amikacin and gentamicin were determined using the broth microdilution method in cation-adjusted Mueller-Hinton broth, as recommended by the Clinical Laboratory Standard Institute (CLSI) guidelines (8). Amikacin and gentamicin sulfate (Fluorochem, Dertbyshire, UK) were tested over a range of dilutions from 0.25 to 256 μg/ml. A final inoculum of 5.10^5 CFU/ml of each strain was distributed in the 96 wells tray (Sarstedt, Ntimbrecht, Germany). All experiments were repeated in triplicate and E. coli ATCC 25922 was used as quality control. According to the CLSI breakpoints (9), Enterobacteriaceae isolates with gentamicin MICs≤4 and amikacin MICs≤16 mg/L were categorized as susceptible, while those with gentamicin MICs≥16 and amikacin MICs≥64 mg/L were categorized as resistant.
(§2) MICs of amikacin and gentamicin were determined as described above in Example 1.

A. baumannii = experiment: MIC by broth microdilution; format: cell-based, Acinetobacter baumannii
Description: as §1, §2

[1] = isolate BM2667, P. stuartii, APH(3′)-VI + AAC(2′)
[2] = isolate R265, P. stuartii, rmtC

Gentamicin
Gentamicin Phenotype (P. stuartii; [1]): S (gentamicin MICs≤4) | MIC (P. stuartii; [1]): 8 µg/mL | Gentamicin Phenotype (P. stuartii; isolate R38, P. stuartii, rmtC): R (gentamicin MICs≥16) | MIC (P. stuartii; isolate R38, P. stuartii, rmtC): >256 µg/mL | Gentamicin Phenotype (P. stuartii; [2]): R (gentamicin MICs≥16) | MIC (P. stuartii; [2]): >256 µg/mL | MIC (P. stuartii; strain BM2667, P. stuartii, APH(3′)-VI + AAC(2′)): 16 µg/mL | MIC (P. stuartii; strain R38, P. stuartii, rmtC): >256 µg/mL | MIC (P. stuartii; strain R265, P. stuartii, rmtC): >256 µg/mL | MIC (A. baumannii; strain 4996, A. baumannii, AAC(6′)-I): 4 µg/mL | MIC (A. baumannii; strain 8541, A. baumannii, APH(3′)-VI): 0.5 µg/mL | MIC (A. baumannii; strain BM2580, A. baumannii, APH(3′)-VI): 2 µg/mL | MIC (A. baumannii; strain R264, A. baumannii, armA): >256 µg/mL | MIC (A. baumannii; strain R1395, A. baumannii, susceptible): 1 µg/mL

NCC[C@H](O)C(=O)N[C@@H]1C[C@H](N)[C@@H](O[C@H]2O[C@H](CN)[C@@H](O)[C@H](O)[C@H]2O)[C@H](O)[C@H]1O[C@H]1O[C@H](CO)[C@@H](O)[C@H](N)[C@H]1O [Amikacin]
MIC (P. stuartii; Providencia stuartii, isolate BM2667, P. stuartii, APH(3′)-VI + AAC(2′), read-out: MIC): 64 µg/mL | MIC (P. stuartii; Providencia stuartii, isolate R38, P. stuartii, rmtC, read-out: MIC): > 256 µg/mL | MIC (P. stuartii; Providencia stuartii, isolate R265, P. stuartii, rmtC, read-out: MIC): > 256 µg/mL | MIC (P. stuartii; Providencia stuartii, strain BM2667, P. stuartii, APH(3′)-VI + AAC(2′), read-out: MIC): 64 µg/mL | MIC (P. stuartii; Providencia stuartii, strain R38, P. stuartii, rmtC, read-out: MIC): > 512 µg/mL | MIC (P. stuartii; Providencia stuartii, strain R265, P. stuartii, rmtC, read-out: MIC): > 512 µg/mL | Amikacin Phenotype (P. stuartii; [1]): R (amikacin MICs≥64 mg/L were categorized as resistant) | Amikacin Phenotype (P. stuartii; isolate R38, P. stuartii, rmtC): R (amikacin MICs≥64 mg/L were categorized as resistant) | Amikacin Phenotype (P. stuartii; [2]): R (amikacin MICs≥64 mg/L were categorized as resistant) | MIC (A. baumannii; Acinetobacter baumannii): 128 µg/mL (≈ 219 µM) | MIC (A. baumannii; Acinetobacter baumannii, strain 4996, A. baumannii, AAC(6′)-I, read-out: MIC): 64 µg/mL (≈ 109 µM) | MIC (A. baumannii; Acinetobacter baumannii, strain BM2580, A. baumannii, APH(3′)-VI, read-out: MIC): 64 µg/mL (≈ 109 µM) | MIC (A. baumannii; Acinetobacter baumannii, strain R264, A. baumannii, armA, read-out: MIC): > 512 µg/mL | MIC (A. baumannii; Acinetobacter baumannii, strain R1395, A. baumannii, susceptible, read-out: MIC): 2 µg/mL (≈ 3.42 µM)
